Tested on: 598228-144-R-J1-PDC complex spheroid viability
Experiment: Anticancer human tumor 598228-144-R-J1-PDC patient-derived serous endometrial adenocarcinoma cell line growth inhibition [GQUAD]
Conditions: for IC50: curve of first compound; for viability, T/C: stronger effect = lower value
Source text: DNA G-quadruplex Stabilizer Agents in Combinations in Complex Spheroids
A high-throughput screen of multi-cell type tumor spheroids was designed to identify active combinations of DNA G-quadruplex stabilizer agents and targeted small molecules. Complex spheroids include a stromal component modeled by human endothelial cells (HUVEC) and fibroblasts modeled by human mesenchymal stem cells (MSCs). The concentration ranges selected for each drug and investigational agent were based upon clinically achievable concentrations if the clinical Cmax of the agent was known.
Compounds. The drugs and investigational agents: pidnarulex (CX-5461; NSC782164), APTO-253 (NSC789042), BRACO-19 (NSC847499), peposertib (NSC802822), ceralasertib (NSC780249), elimusertib (NSC800525), camonsertib (NSC841442), AZD-1390 (NSC803789), olaparib (NSC753686), talazoparib (NSC767125), ART-558 (NSC835418), sotorasib (NSC818433), MRTX-1133 (NSC836407), SN-38 (NSC673596), topotecan (NSC609699), etoposide (NSC141540), doxorubicin (NSC123127), gemcitabine (NSC613327), 5-fluorouracil (NSC19893), paclitaxel (NSC125973), vemurafenib (NSC761431), panobinostat (NSC761190), R-306465 (JNJ-16241199; NSC773264), adavosertib (NSC754352), TP-3654 (NSC805149), carboplatin (NSC241240), KSQ-4279 (NSC840948), and staurosporine (NSC755774) were obtained from the National Cancer Institute (NCI) Developmental Therapeutics Program Chemical Repository (34). The FDA-approved anticancer drug set is available from the NCI Developmental Therapeutics Program. […] The stock solutions were prepared in dimethyl sulfoxide (DMSO, Sigma-Aldrich, St. Louis, MO, cat. D2650) at 800-fold the tested concentration and stored at -70 degrees C prior to their use. All drugs and investigational agents were tested over a range starting from a high concentration at or near the clinical Cmax and decreasing in half-log increments. If the clinical Cmax for an agent had not been determined, the highest concentration tested was 10 microM.
2.3 Cell Culture. All cells were maintained in an incubator at 37 degrees C and 5% CO2 with 95% humidity. The PDC lines were cultured according to standard operating procedures established by the NCI PDMR. All PDCs were thawed and cultured in Matrigel-coated flasks prepared with a working solution of 1X Ham's F-12 nutrient mix, without supplementation (Invitrogen, cat. 11765054), 100 U/mL penicillin-streptomycin (Invitrogen, cat. 15140122), and 2.5% Matrigel (Corning Inc., cat. 354248) for the first three passages. The 857933-349-R-J2-PDC line was cultured in 6C/Colon 1B media, which includes advanced DMEM/F-12 (Thermo Fisher Scientific, cat. 12634028), 10 mM HEPES (Thermo Fisher Scientific, cat. 15630080), 1X GlutaMAX supplement (Thermo Fisher Scientific, cat. 35050061), 0.1 mg/mL primocin (InvivoGen, cat. ant-pm-2), 10% defined fetal bovine serum, heat inactivated (HyClone Laboratories Inc., cat. SH30070.03HI), 50% L-WRN conditioned media (ATCC, cat. CRL-3276), 1.25 mM N-Acetyl-L-cysteine (Sigma-Aldrich, cat. A9165), 10 mM nicotinamide (Sigma-Aldrich, cat. N0636), 1X B-27 supplement (Thermo Fisher Scientific, cat. 17504044), 1X N-2 supplement (Thermo Fisher Scientific, cat. 17502048), 10 microM Y-27632 dihydrochloride (Tocris Bioscience, cat. 1254), and 50 ng/mL human EGF recombinant protein (Thermo Fisher Scientific, cat. PHG0311). The 485176-168-R4-J1-PDC line was cultured in Panc media, which includes all 6C/Colon 1B media components plus 100 ng/mL human FGF-10 (Thermo Fisher Scientific, cat. 100-26), 500 nM SB-431542 (Selleckchem, cat. S1067), and gastrin (Tocris, cat. 3006).
[…]

[1] = second compound 0.0316 µM, first compound 0.0316 µM
[2] = second compound 0.0316 µM, first compound 0.1 µM
[3] = second compound 0.0316 µM, first compound 0.316 µM
[4] = second compound 0.0316 µM, first compound 1 µM
[5] = second compound 0.0316 µM, first compound 3.16 µM
[6] = second compound 0.0316 µM, first compound 10 µM
[7] = second compound 0.1 µM, first compound 0.0316 µM
[8] = second compound 0.1 µM, first compound 0.1 µM
[9] = second compound 0.1 µM, first compound 0.316 µM
[10] = second compound 0.1 µM, first compound 1 µM
[11] = second compound 0.1 µM, first compound 3.16 µM
[12] = second compound 0.1 µM, first compound 10 µM
[13] = second compound 0.316 µM, first compound 0.0316 µM
[14] = second compound 0.316 µM, first compound 0.1 µM
[15] = second compound 0.316 µM, first compound 0.316 µM
[16] = second compound 0.316 µM, first compound 1 µM
[17] = second compound 0.316 µM, first compound 3.16 µM
[18] = second compound 0.316 µM, first compound 10 µM
[19] = second compound 1 µM, first compound 0.0316 µM
[20] = second compound 1 µM, first compound 0.1 µM
[21] = second compound 1 µM, first compound 0.316 µM
[22] = second compound 1 µM, first compound 1 µM
[23] = second compound 1 µM, first compound 3.16 µM
[24] = second compound 1 µM, first compound 10 µM
[25] = second compound 3.16 µM, first compound 0.0316 µM
[26] = second compound 3.16 µM, first compound 0.1 µM
[27] = second compound 3.16 µM, first compound 0.316 µM
[28] = second compound 3.16 µM, first compound 1 µM
[29] = second compound 3.16 µM, first compound 3.16 µM
[30] = second compound 3.16 µM, first compound 10 µM
[31] = second compound 10 µM, first compound 0.0316 µM
[32] = second compound 10 µM, first compound 0.1 µM
[33] = second compound 10 µM, first compound 0.316 µM
[34] = second compound 10 µM, first compound 1 µM
[35] = second compound 10 µM, first compound 3.16 µM
[36] = second compound 10 µM, first compound 10 µM
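Also: spheroids exposed to the agents for one week before reading.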
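For viability, T/C in this document: percent of vehicle DMSO control viability so 100% = untreated growth.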

C=CCn1c(=O)c2cnc(Nc3ccc(N4CCN(C)CC4)cc3)nc2n1-c1cccc(C(C)(C)O)n1 + CN(C)c1ccc(Nc2c3ccc(NC(=O)CCN4CCCC4)cc3nc3cc(NC(=O)CCN4CCCC4)ccc23)cc1
IC50 (second compound 0.0316 µM): 0.913 µM
IC50 (second compound 0.1 µM): 1.41 µM
IC50 (second compound 0.316 µM): > 10 µM
IC50 (second compound 1 µM): 2.29 µM
IC50 (second compound 3.16 µM): 0.611 µM
IC50 (second compound 10 µM): 0.233 µM
viability, T/C [1]: 85.4%
viability, T/C [2]: 99.5%
viability, T/C [3]: 65%
viability, T/C [4]: 44.2%
viability, T/C [5]: 53.7%
viability, T/C [6]: 48.2%
viability, T/C [7]: 109%
viability, T/C [8]: 97%
viability, T/C [9]: 74.4%
viability, T/C [10]: 47%
viability, T/C [11]: 50.9%
viability, T/C [12]: 45.3%
viability, T/C [13]: 107%
viability, T/C [14]: 83.6%
viability, T/C [15]: 54%
viability, T/C [16]: 52.5%
viability, T/C [17]: 51.7%
viability, T/C [18]: 52%
viability, T/C [19]: 103%
viability, T/C [20]: 79.3%
viability, T/C [21]: 67.9%
viability, T/C [22]: 50.8%
viability, T/C [23]: 47.6%
viability, T/C [24]: 47.7%
viability, T/C [25]: 131%
viability, T/C [26]: 88.3%
viability, T/C [27]: 63.3%
viability, T/C [28]: 32.1%
viability, T/C [29]: 46.1%
viability, T/C [30]: 21.9%
viability, T/C [31]: 88.6%
viability, T/C [32]: 72.8%
viability, T/C [33]: 39.8%
viability, T/C [34]: 21.7%
viability, T/C [35]: 8.8%
viability, T/C [36]: 4.75%

CC(C)n1c(=O)n(C)c2cnc3cc(F)c(-c4ccc(OCCCN5CCCCC5)nc4)cc3c21 + Cc1[nH]c2ccc(F)cc2c1-c1nc2c3cccnc3c3ncccc3c2[nH]1
IC50 (second compound 0.0316 µM): > 10 µM
IC50 (second compound 0.1 µM): > 10 µM
IC50 (second compound 0.316 µM): > 10 µM
IC50 (second compound 1 µM): 5.12 µM
IC50 (second compound 3.16 µM): < 0.0316 µM
IC50 (second compound 10 µM): > 10 µM
viability, T/C [1]: 116%
viability, T/C [2]: 100%
viability, T/C [3]: 117%
viability, T/C [4]: 121%
viability, T/C [5]: 106%
viability, T/C [6]: 65%
viability, T/C [7]: 107%
viability, T/C [8]: 108%
viability, T/C [9]: 95.4%
viability, T/C [10]: 94.4%
viability, T/C [11]: 91.7%
viability, T/C [12]: 77%
viability, T/C [13]: 90.8%
viability, T/C [14]: 97.2%
viability, T/C [15]: 93.9%
viability, T/C [16]: 87.4%
viability, T/C [17]: 101%
viability, T/C [18]: 62.2%
viability, T/C [19]: 72.6%
viability, T/C [20]: 60.6%
viability, T/C [21]: 59.2%
viability, T/C [22]: 60.6%
viability, T/C [23]: 59.2%
viability, T/C [24]: 39.5%
viability, T/C [25]: 45.2%
viability, T/C [26]: 47.4%
viability, T/C [27]: 40.8%
viability, T/C [28]: 39.3%
viability, T/C [29]: 29.5%
viability, T/C [30]: 27.3%
viability, T/C [31]: 66%
viability, T/C [32]: 57.9%
viability, T/C [33]: 52.9%
viability, T/C [34]: 54.1%
viability, T/C [35]: 55.4%
viability, T/C [36]: 46.5%

O=C(c1cc(Cc2n[nH]c(=O)c3ccccc23)ccc1F)N1CCN(C(=O)C2CC2)CC1 + Cc1[nH]c2ccc(F)cc2c1-c1nc2c3cccnc3c3ncccc3c2[nH]1
IC50 (second compound 0.0316 µM): > 10 µM
IC50 (second compound 0.1 µM): > 10 µM
IC50 (second compound 0.316 µM): > 10 µM
IC50 (second compound 1 µM): > 10 µM
IC50 (second compound 3.16 µM): < 0.0316 µM
IC50 (second compound 10 µM): > 10 µM
viability, T/C [1]: 110%
viability, T/C [2]: 95.2%
viability, T/C [3]: 92.1%
viability, T/C [4]: 105%
viability, T/C [5]: 96.4%
viability, T/C [6]: 97.5%
viability, T/C [7]: 91.4%
viability, T/C [8]: 107%
viability, T/C [9]: 87.8%
viability, T/C [10]: 88.3%
viability, T/C [11]: 85.8%
viability, T/C [12]: 73.8%
viability, T/C [13]: 72.9%
viability, T/C [14]: 90.7%
viability, T/C [15]: 78%
viability, T/C [16]: 79%
viability, T/C [17]: 68.7%
viability, T/C [18]: 71%
viability, T/C [19]: 56.1%
viability, T/C [20]: 66.6%
viability, T/C [21]: 64.3%
viability, T/C [22]: 67.1%
viability, T/C [23]: 60.1%
viability, T/C [24]: 58.1%
viability, T/C [25]: 40.8%
viability, T/C [26]: 44.4%
viability, T/C [27]: 38.6%
viability, T/C [28]: 42%
viability, T/C [29]: 50.8%
viability, T/C [30]: 45.4%
viability, T/C [31]: 70.9%
viability, T/C [32]: 57.8%
viability, T/C [33]: 65.9%
viability, T/C [34]: 61.5%
viability, T/C [35]: 49.6%
viability, T/C [36]: 61.6%
